Test results reported in ChEMBL document CHEMBL3407354, “Recent advances in the development of acetyl-CoA carboxylase (ACC) inhibitors for the treatment of metabolic disease” (J Med Chem, 2015).
Values belong to the molecule of their own block, whether it stands above or below them.

How the values were obtained:
[1] = molecular target: Acetyl-CoA carboxylase 1 (Rattus norvegicus, UniProt P11497); assay: Inhibition of rat recombinant ACC1
[2] = Intrinsic clearance in human microsomes; type: ADME
[3] = Lipophilicity, log D of the compound; type: physicochemical; conditions: octanol/water
[4] = molecular target: T1, Acetyl-CoA carboxylase 2 (Homo sapiens, UniProt O00763); assay: Inhibition of human ACC2 assessed as malonyl CoA formation by NADH-linked kinetic method
T1 sequence (O00763 whole entry): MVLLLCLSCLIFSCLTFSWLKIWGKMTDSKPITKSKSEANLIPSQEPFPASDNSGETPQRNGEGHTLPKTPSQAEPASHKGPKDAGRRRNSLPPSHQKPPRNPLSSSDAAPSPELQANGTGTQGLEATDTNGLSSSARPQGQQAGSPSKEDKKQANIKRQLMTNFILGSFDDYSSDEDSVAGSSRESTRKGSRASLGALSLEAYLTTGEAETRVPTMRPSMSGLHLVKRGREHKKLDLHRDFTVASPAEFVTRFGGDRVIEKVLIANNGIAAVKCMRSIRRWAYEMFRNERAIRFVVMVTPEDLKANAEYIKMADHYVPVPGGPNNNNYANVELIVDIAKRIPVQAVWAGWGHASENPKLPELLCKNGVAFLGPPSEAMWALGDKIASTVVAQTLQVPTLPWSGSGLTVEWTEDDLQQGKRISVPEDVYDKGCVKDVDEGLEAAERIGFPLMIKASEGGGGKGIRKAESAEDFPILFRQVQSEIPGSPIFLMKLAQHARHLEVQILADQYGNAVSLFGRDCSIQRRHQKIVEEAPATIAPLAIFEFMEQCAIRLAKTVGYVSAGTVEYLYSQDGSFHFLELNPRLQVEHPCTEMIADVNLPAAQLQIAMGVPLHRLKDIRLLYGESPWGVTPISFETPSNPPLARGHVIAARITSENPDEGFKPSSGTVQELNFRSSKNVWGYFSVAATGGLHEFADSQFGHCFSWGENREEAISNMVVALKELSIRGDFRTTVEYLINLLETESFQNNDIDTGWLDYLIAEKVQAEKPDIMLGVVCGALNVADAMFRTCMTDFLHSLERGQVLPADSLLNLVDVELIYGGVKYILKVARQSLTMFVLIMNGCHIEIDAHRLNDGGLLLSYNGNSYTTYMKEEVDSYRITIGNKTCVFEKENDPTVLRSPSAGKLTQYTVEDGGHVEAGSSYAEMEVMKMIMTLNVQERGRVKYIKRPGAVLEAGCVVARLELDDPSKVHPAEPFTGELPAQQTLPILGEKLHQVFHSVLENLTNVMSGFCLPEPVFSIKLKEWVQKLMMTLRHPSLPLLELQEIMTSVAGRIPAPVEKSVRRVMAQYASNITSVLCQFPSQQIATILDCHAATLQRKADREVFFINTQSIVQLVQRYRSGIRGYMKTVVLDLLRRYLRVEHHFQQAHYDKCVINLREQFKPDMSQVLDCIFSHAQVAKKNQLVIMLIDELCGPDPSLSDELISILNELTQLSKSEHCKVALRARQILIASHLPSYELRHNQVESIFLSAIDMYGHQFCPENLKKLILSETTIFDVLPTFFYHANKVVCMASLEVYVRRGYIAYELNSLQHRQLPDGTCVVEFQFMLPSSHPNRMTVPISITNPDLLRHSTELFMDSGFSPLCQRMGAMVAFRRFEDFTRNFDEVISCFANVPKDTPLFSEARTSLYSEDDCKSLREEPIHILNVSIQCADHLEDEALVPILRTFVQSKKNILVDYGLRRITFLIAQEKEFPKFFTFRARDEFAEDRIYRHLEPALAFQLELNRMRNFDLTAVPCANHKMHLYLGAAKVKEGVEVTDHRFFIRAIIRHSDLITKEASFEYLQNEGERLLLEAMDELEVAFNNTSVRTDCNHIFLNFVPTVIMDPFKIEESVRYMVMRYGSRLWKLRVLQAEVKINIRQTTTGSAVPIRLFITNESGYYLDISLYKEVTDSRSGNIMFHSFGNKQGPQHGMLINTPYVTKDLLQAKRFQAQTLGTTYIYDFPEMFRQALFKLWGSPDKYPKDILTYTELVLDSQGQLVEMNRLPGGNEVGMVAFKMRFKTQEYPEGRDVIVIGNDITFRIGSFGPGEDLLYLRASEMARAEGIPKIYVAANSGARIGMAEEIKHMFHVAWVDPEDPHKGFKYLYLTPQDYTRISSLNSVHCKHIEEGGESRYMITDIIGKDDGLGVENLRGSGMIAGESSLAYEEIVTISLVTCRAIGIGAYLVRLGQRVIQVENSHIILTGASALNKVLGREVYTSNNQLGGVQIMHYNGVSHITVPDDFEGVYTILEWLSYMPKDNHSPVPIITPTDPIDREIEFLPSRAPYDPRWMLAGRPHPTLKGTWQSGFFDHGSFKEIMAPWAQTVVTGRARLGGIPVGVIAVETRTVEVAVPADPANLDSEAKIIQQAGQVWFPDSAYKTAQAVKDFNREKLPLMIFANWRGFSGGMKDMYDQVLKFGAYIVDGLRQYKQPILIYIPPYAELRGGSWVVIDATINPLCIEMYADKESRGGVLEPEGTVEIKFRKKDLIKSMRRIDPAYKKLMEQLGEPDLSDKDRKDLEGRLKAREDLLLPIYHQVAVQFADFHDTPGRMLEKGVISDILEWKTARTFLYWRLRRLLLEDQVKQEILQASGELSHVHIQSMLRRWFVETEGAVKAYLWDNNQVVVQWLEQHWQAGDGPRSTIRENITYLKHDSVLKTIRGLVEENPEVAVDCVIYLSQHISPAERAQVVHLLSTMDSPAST

[5] = molecular target: Acetyl-CoA carboxylase 1 (Homo sapiens, UniProt Q13085); assay: In vitro inhibition of human recombinant His-tagged ACC1 assessed as malonyl-CoA level
[6] = system: HepG2; assay: Inhibition of fatty acid synthesis in human HepG2 cells; type: functional, cell-based
[7] = species on record: Rattus norvegicus; assay: Reduction in fatty acid synthesis in Sprague-Dawley rat; type: functional
[8] = molecular target: T1, Acetyl-CoA carboxylase 2; assay: In vitro inhibition of human recombinant His-tagged ACC2 assessed as malonyl-CoA level

- IC50 [1]: 25 nM
- CLint scaled [2]: 86 mL/min/kg
Structure (SMILES): Cc1cc2c(cc1C)C(=O)CC1(CCN(C(=O)c3cc(C)c4[nH]ncc4c3)CC1)O2

- CLint scaled [2]: ≤ 8 mL/min/kg
- logD [3]: 1.8
Structure (SMILES): CC(C)(C)n1cc2c(n1)C(=O)CC1(CCN(C(=O)c3ccc4[nH]ncc4c3)CC1)O2

- logD [3]: 5.9
Structure (SMILES): CC(C)(C)OC(=O)CC[C@H]1CC[C@H](CNC(=O)c2cc(-c3ccccc3)nc3ccccc23)CC1

- IC50 [4]: 50 nM
Structure (SMILES): CCOc1ccc(N2CC(Oc3ccc([C@H](C)NC(=O)c4cn[nH]c4)cc3)C2)c(C)c1

- IC50 [5]: 23000 nM
Structure (SMILES): CCOC(=O)N1CCN(c2nc(C)nc3sc4c(c23)CCCC4)CC1

- IC50 [6]: < 100 nM
Structure (SMILES): COc1ccccc1[C@@H](Cn1c(=O)n(C(C)(C)C(=O)O)c(=O)c2c(C)c(-c3ncco3)sc21)OC(C)C

- IC50 [4]: 60 nM
Structure (SMILES): CCCOc1ccc(C2CCN(c3ccc(C(C)NC(C)=O)cc3F)CC2)c(C)c1 (racemic)

- IC50 [4]: 80 nM
Structure (SMILES): Cc1cc(OCC2CC2)ccc1C1CCN(c2ccc(C(C)C(=O)NC3CC3)cc2)CC1 (racemic)

- IC50 [5]: 2.6 nM
- IC50 [6]: < 100 nM
- IC50 [8]: 1.7 nM
Structure (SMILES): COc1ccccc1[C@H](Cn1c(=O)n(C(C)(C)C(=O)O)c(=O)c2c(C)c(-c3ncco3)sc21)OC1CCOCC1 [FIRSOCOSTAT]
- ED50 [7]: < 0.3 mg/kg
